# In patent publication US7288542B2, “Non-nucleoside reverse transcriptase inhibitors” (Roche Palo Alto LLC, priority 2004, dated 2007):
# Counter-ions that a name gives are not always drawn.
# Legend:
# [1] = Oral pharmacokinetics in rats: plasma concentration of active nnRTI after gavage of prodrug or parent (Example 8); format: in vivo; details: parent compound dosed p.o. at 50 mg/kg; for Cmax: rat, plasma, po, read-out: Cmax (peak concentration of active nnRTI) (converted)
# Protocol: dose equivalent to (0.127 mmol) was administered orally by gavage. A blood sample (0.3 mL) was collected from the […] at 0.5, 1, 2, 3, 4, 6 and 8 hours after via the jugular cannula. A sample of at least 0.3 mL of blood was withdrawn from the untreated animals 3 h after dosing. After 24 h from dosing, as much blood as possible was collected from all treated and control animals. Potassium oxalate/NaF was added to the samples which were stored on ice during sampling procedure. The samples were spun in a refrigerated centrifuge at […] as soon as possible and the plasma samples were stored −20° C. immediately after centrifugation amd later transferred to a −80° C. freezer until analysis. The concentration of test compound was determined by hplc.
Structure (SMILES),melting point [°C],AUC (total amount of active nnRTI absorbed) [1] [ng·h/mL],Cmax [1] [ng/mL]
N#Cc1cc(F)cc(Oc2c(Cl)ccc(Cc3ccc(=O)n(CO)n3)c2F)c1 [Compound I-29],100.5 to 103.8,–,–
"Cc1cc(Cc2ccc(Cl)c(Oc3cc(C#N)cc(C#N)c3)c2F)n[nH]c1=O [Compound 10, 5-[6-chloro-2-fluoro-3-(5-methyl-6-oxo-1,6-dihydro-pyridazin-3-ylmethyl)-phenoxy]-isophthalonitrile]",–,8100,600
"Cc1cc(Cc2ccc(Cl)c(Oc3cc(C#N)cc(C#N)c3)c2F)nn(COC(=O)OCCN(C)C)c1=O (as salt: HCl) [Compound I-18, Carbonic acid 3-[4-chloro-3-(3,5-dicyano-phenoxy)-2-fluoro-benzyl]-5-methyl-6-oxo-6H-pyridazin-1-ylmethyl ester 2-dimethylamino-ethyl ester]",75 to 90,–,–
"Cc1cc(Cc2ccc(Cl)c(Oc3cc(C#N)cc(C#N)c3)c2F)nn(COC(=O)CCC(=O)O)c1=O [Compound I-8, Succinic acid mono-{3-[4-chloro-3-(3,5-dicyano-phenoxy)-2-fluoro-benzyl]-5-methyl-6-oxo-6H-pyridazin-1-ylmethyl}ester]",167 to 171.5,–,–
"Cc1cc(Cc2ccc(Cl)c(Oc3cc(C#N)cc(C#N)c3)c2F)nn(COC(=O)[C@@H](N)C(C)C)c1=O (as salt: hydrochloride) [Compound I-5, (S)-1-{3-[4-Chloro-3-(3,5-dicyano-phenoxy)-2-fluoro-benzyl]-5-methyl-6-oxo-6H-pyridazin-1-ylmethoxycarbonyl}-2-methyl-propyl-ammonium; chloride]",176.7 to 178.3,–,–
"N#Cc1cc(F)cc(Oc2c(Cl)ccc(Cc3ccc(=O)n(COC(=O)CCC(=O)O)n3)c2F)c1 [Compound I-30, Succinic acid mono-{3-[4-chloro-3-(3-cyano-5-fluoro-phenoxy)-2-fluoro-benzyl]-6-oxo-6H-pyridazin-1-ylmethyl}ester]",133.9 to 137,–,–
"Cc1cc(Cc2ccc(Cl)c(Oc3cc(Cl)cc(C#N)c3)c2F)n[nH]c1=O [Compound 11, 3-chloro-5-[6-chloro-2-fluoro-3-(5-methyl-6-oxo-1,6-dihydro-pyridazin-3-ylmethyl)-phenoxy]-benzonitrile]",–,30000,2300

# The remaining lines, values ahead:
melting point [°C],AUC (total amount of active nnRTI absorbed) [1] [ng·h/mL],Cmax [1] [ng/mL],Structure (SMILES)
154.3 to 156.9,–,–,"Cc1cc(Cc2ccc(Cl)c(Oc3cc(C#N)cc(C(F)F)c3)c2F)nn(COC(=O)CCC(=O)O)c1=O [Compound I-28, Succinic acid mono-{3-[4-chloro-3-(3-cyano-5-difluoromethyl-phenoxy)-2-fluoro-benzyl]-5-methyl-6-oxo-6H-pyridazin-1-ylmethyl}ester]"
193.7 to 197.2,–,–,"Cc1cc(Cc2ccc(Cl)c(Oc3cc(C#N)cc(C#N)c3)c2F)nn(COP(=O)(O)O)c1=O (as salt: sodium) (hydrate or solvate) [Compound I-23, Phosphoric acid mono-{3-[4-chloro-3-(3,5-dicyano-phenoxy)-2-fluoro-benzyl]-5-methyl-6-oxo-6H-pyridazin-1-ylmethyl}ester disodium salt]"
172 to 179,–,–,"Cc1cc(Cc2ccc(Cl)c(Oc3cc(C#N)cc(C#N)c3)c2F)nn(CO)c1=O [Compound I-1, 5-[6-Chloro-2-fluoro-3-(1-hydroxymethyl-5-methyl-6-oxo-1,6-dihydro-pyridazin-3-ylmethyl)-phenoxyl]-isophthalonitrile]"
113.9 to 117.3,–,–,Cc1cc(Cc2ccc(Cl)c(Oc3cc(C#N)cc(C(F)F)c3)c2F)nn(CO)c1=O [Compound I-27]
